Test results taken from patent US11491150B2, “Organic compounds” (INTRA-CELLULAR THERAPIES, INC., priority 2017, dated 2022).
Read-outs that look alike come from different tables or passages of the source.

Legend:
α7 nAChR = α7 nAChR (Homo sapiens, UniProt P36544); experiment: Binding at 10 μM to α7 nAChR (selectivity test)
muscle-type nAChRs = experiment: Binding at 10 μM to muscle-type nAChRs (selectivity test)
Procedure: (§1) The selectivity of these compounds is measured on the neuronal α4β2 and the muscle-type nAChRs using methods known in the art.

neuronal α4β2 nAChR = neuronal α4β2 nAChR (Homo sapiens, UniProt P17787+P43681); experiment: Binding at 10 μM to neuronal α4β2 nAChR (selectivity test)
Sequence of neuronal α4β2 nAChR (P43681 29-627 limits assumed): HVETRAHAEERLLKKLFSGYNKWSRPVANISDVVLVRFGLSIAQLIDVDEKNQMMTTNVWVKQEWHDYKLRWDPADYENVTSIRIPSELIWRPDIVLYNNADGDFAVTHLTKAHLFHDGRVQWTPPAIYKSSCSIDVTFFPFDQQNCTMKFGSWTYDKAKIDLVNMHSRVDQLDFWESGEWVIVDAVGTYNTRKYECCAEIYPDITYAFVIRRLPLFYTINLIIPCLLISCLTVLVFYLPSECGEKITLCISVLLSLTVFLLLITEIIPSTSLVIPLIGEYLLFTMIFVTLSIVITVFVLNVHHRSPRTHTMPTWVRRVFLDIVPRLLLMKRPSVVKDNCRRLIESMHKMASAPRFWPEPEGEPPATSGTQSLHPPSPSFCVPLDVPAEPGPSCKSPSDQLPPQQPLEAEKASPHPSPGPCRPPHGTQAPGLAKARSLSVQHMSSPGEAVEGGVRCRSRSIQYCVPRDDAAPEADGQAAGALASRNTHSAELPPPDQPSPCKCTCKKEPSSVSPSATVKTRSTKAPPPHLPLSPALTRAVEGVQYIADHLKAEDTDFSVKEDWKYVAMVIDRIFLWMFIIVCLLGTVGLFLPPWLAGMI
Sequence of neuronal α4β2 nAChR (P17787 26-502): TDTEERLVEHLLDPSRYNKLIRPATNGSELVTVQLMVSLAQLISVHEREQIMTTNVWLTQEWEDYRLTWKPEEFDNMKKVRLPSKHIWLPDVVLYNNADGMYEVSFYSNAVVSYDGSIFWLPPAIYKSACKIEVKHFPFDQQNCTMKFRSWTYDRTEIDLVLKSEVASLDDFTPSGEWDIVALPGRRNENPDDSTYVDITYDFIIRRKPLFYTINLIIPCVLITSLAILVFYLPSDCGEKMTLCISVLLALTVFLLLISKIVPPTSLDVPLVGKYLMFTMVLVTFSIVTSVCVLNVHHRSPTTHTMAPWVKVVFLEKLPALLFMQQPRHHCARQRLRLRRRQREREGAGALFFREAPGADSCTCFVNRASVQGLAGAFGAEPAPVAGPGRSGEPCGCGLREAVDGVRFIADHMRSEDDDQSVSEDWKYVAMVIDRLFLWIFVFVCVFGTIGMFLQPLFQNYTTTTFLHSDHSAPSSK
Procedure: as §1

[1] = Pharmacokinetic study, brain penetrability after oral administration; type: in vivo; details: mouse, male C57B1/6 mice, oral 10 mg/kg, t=2 h
Procedure: The pharmacokinetic (PK) study of compounds are performed in male C57B1/6 mice (n=3 per time point) after an oral administration at 10 mg/kg to evaluate the brain penetrability. The concentrations of representative Compound 16 in brain and plasma are 0.15 μM and 0.2 μM at time t=2 h, respectively. The tmax of Compound Q is probably longer than 2 h.

mouse model of diabetes = experiment: Nephropathy in streptozotocin mouse model of diabetes (eNOS-/- mice), α7-nAchR blocker; type: in vivo; details: blocker 2 mg/kg i.p. 5 days a week, 10 weeks; for Systolic BP: tail-cuff
Procedure: Normal mice express the α7-nAChR in both the proximal and distal tubule of the kidneys. Tests were conducted to determine the role of the α7-nAchR on the severity of nephropathy in a mouse model of diabetes. Diabetes mellitus (DM) was induced in all mice with streptozotocin (STZ). This test closely mimics diabetic […] in humans. Mice were either given nicotine (DN) in doses of […] in drinking water or tap water with no nicotine for a period of 10 weeks (DT). Targeted disruption of the endothelial nitric oxide synthase gene led to eNOS^-/- knockout in a group of mice to increase susceptibility of STZ in the mice. One group of eNOS^-/- knockout mice was also subjected to targeted disruption of the α7-nAchR gene, which led to eNOS^-/-/α7-nAchR^-/- double knockout mice (DN^-/- and DT^-/-). A separate group of eNOS^-/- mice also received a α7-nAchR blocker (DN+B and DT+B). The blocker used was Compound 17 at a dosage of 2 mg/kg given intraperitoneally for 5 days a week for a period of 10 weeks. Blood pressure was measured by tail-cuff method and urine was collected every 2 weeks for albuminuria.
All mice became diabetic after being administered STZ, and all mice were also hypertensive.

[2] = DN + B: diabetic eNOS-/- mice on nicotine
[3] = DT + B: diabetic eNOS-/- mice on tap water

Sequence of α7 nAChR (P36544 23-502): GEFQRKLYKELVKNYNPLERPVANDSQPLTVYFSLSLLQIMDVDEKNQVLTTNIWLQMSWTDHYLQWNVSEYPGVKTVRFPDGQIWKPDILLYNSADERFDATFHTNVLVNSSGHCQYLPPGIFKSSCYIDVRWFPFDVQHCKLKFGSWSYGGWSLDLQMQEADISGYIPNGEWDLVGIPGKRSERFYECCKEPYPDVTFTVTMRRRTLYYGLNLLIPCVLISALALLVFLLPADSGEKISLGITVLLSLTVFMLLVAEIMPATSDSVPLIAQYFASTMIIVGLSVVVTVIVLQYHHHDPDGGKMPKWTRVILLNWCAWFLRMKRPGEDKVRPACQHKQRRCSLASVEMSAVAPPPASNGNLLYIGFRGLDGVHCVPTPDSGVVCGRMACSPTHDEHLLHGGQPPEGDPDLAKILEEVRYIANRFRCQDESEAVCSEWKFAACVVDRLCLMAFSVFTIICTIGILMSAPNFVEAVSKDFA

binding to the α7 receptor (α7 nAChR)	binding to muscle-type nAChRs (muscle-type nAChRs)	binding to the neuronal α4β2 nAChR (neuronal α4β2 nAChR)	concentration at 2 h ([1]; brain, read-out: concentration in brain)	concentration at 2 h ([1]; plasma, read-out: concentration in plasma)	SMILES	Albuminuria (mouse model of diabetes; [2])	Blood Glucose (mouse model of diabetes; [2])	Systolic BP (mouse model of diabetes; [2])	Albuminuria (mouse model of diabetes; [3])	Blood Glucose (mouse model of diabetes; [3])	Systolic BP (mouse model of diabetes; [3])
92%	no detectable binding	no detectable binding	150 nM	200 nM	CN(CC1CC[N+](C)(Cc2ccccc2)CC1)C(=O)c1cn(Cc2ccccc2Cl)nn1 (centres unmarked) [Compound 16]	–	–	–	–	–	–
–	–	–	–	–	NS(=O)(=O)c1ccc(Cn2ncc(C(=O)NCC3CCN(Cc4ccccc4)CC3)n2)cc1 [Compound 17]	35 ± 6 ng/ml/24 hr	441 ± 43 mg/dL	142 ± 13 mmHg	50 ± 13 ng/ml/24 hr	354 ± 51 mg/dL	150 ± 11 mmHg
